{"source": "patent US20120277209A1", "about": "“PYRAZINE COMPOUNDS AS PHOSPHODIESTERASE 10 INHIBITORS” (Amgen Inc., priority 2009, published 2012)", "note": "pIC50: −log10 of the molar value.", "data": [{"target": "PDE10 (UniProt Q9Y233)", "assay": "PDE10 enzyme inhibition, IMAP TR-FRET assay (MPDE10A7 Enzyme Activity and Inhibition)", "assay_type": "biochemical", "settings": "IC50 class against PDE10; read-out: IC50", "method": "(§1) All compounds were divided in five classes based on their IC50 values against PDE10. The range of the IC50 in each class is as follows:\n(§2) An IMAP TR-FRET assay was used to analyze the enzyme activity (Molecular Devices Corp., Sunnyvale Calif.). 5 μL of serial diluted PDE10A (BPS Bioscience, San Diego, Calif.) or tissue homogenate was incubated with equal volumes of diluted fluorescein labeled cAMP or cGMP for 60 min in 384-well polystyrene assay plates (Corning, Corning, N.Y.) at room temperature. After incubation, the reaction was stopped by adding 60 μL of diluted binding reagents and was incubated for 3 hours to overnight at room temperature. The plates were read on an Envision (Perkin Elmer, Waltham, Mass.) for time resolved fluorescence resonance energy transfer. The data were analyzed with GraphPad Prism (La Jolla, Calif.).\n(§3) Enzyme Inhibition. To check the inhibition profile, 5 μL of serial diluted compounds were incubated with 5 μL of diluted PDE10 enzyme (BPS Bioscience, San Diego, Calif.) or tissue homogenate in a 384-well polystyrene assay plate (Corning, Corning, N.Y.) for 30 min at room temperature. After incubation, 10 μL of diluted fluorescein labeled cAMP or cGMP substrate were added and incubated for 60 min at room temperature. The reaction was stopped by adding 60 μL of diluted binding reagents and plates were read on an Envision (Perkin Elmer, Waltham, Mass.) for time resolved fluorescence resonance energy transfer. The data were analyzed with GraphPad Prism (La Jolla, Calif.).\n(§4) The tabulated IC50 data represent an average IC50 data for each compound.", "values": [{"smiles": "COc1ncccc1-c1nccnc1Oc1ccc(Nc2nc3cc(F)ccc3s2)cc1", "note": "[Example 154, 5-fluoro-N-(4-(3-(2-methoxypyridin-3-yl)pyrazin-2-yloxy)phenyl)benzo[d]thiazol-2-amine]", "pIC50": "7.00 to 7.60"}, {"smiles": "COCC(=O)N1CCC(c2nccnc2Oc2ccc(C(=O)c3nc4ccccc4[nH]3)cc2)CC1", "note": "[Example 232, 1-(4-(3-(4-(1H-benzo[d]imidazole-2-carbonyl)phenoxy)pyrazin-2-yl)piperidin-1-yl)-2-methoxyethanone]", "pIC50": "> 7.60"}, {"smiles": "CN(C)CC(=O)N1CCC(c2nccnc2Oc2ccc(C(=O)c3nc4ccccc4[nH]3)cc2)CC1", "note": "[Example 245, 1-(4-(3-(4-(1H-benzo[d]imidazole-2-carbonyl)phenoxy)pyrazin-2-yl)piperidin-1-yl)-2-(dimethylamino) ethanone]", "pIC50": "> 7.60"}, {"smiles": "CC(=O)N1CCC(c2nccnc2Oc2ccc(Nc3nc4ccccc4s3)nc2)CC1", "note": "[Example 249, 1-(4-(3-(6-(benzo[d]thiazol-2-ylamino)pyridin-3-yloxy)pyrazin-2-yl)piperidin-1-yl)ethanone]", "pIC50": "6.00 to 6.60"}, {"smiles": "N#CC1CCN(c2nccnc2Oc2ccc(Nc3nc4ccccc4s3)cc2)CC1", "note": "[Example 70, 1-(3-(4-(benzo[d]thiazol-2-ylamino)phenoxy)pyrazin-2-yl)piperidine-4-carbonitrile]", "pIC50": "> 7.60"}, {"smiles": "CC1CN(c2nccnc2Oc2ccc(Nc3nc4ccccc4s3)cc2)CC(C)O1", "note": "(stereo not shown) [Example 74, N-(4-(3-(2,6-dimethylmorph-olino)pyrazin-2-yloxy)phenyl)-benzo[d]thiazol-2-amine]", "pIC50": "7.00 to 7.60"}, {"smiles": "COc1ncccc1-c1nccnc1Oc1ccc(Nc2nc3ccc(F)cc3s2)cc1", "note": "[Example 153, 6-fluoro-N-(4-(3-(2-methoxypyridin-3-yl)pyrazin-2-yloxy)phenyl)benzo[d]thiazol-2-amine]", "pIC50": "7.00 to 7.60"}, {"smiles": "NC(=O)C1CCN(c2nccnc2Oc2ccc(Nc3nc4ccccc4s3)cc2)CC1", "note": "[Example 81, 1-(3-(4-(benzo[d]thiazol-2-ylamino)phenoxy)pyrazin-2-yl)piperidine-4-carboxamide]", "pIC50": "> 7.60"}, {"smiles": "O=C(c1ccc(Oc2nccnc2Oc2ccccc2)cc1)c1nc2ccccc2[nH]1", "note": "[Example 167, (1H-benzo[d]imidazol-2-yl)(4-(3-phenoxypyrazin-2-yloxy)phenyl)methanone]", "pIC50": "6.60 to 7.00"}, {"smiles": "c1ccc2sc(Nc3ccc(Oc4nccnc4-c4ccc(N5CCOCC5)cc4)cc3)nc2c1", "note": "[Example 139, N-(4-(3-(4-morpholinophenyl)pyrazin-2-yloxy)phenyl)benzo[d]thiazol-2-amine]", "pIC50": "6.60 to 7.00"}, {"smiles": "COc1cnccc1-c1nccnc1Oc1ccc(Nc2nc3ccccc3s2)cc1", "note": "[Example 149, N-(4-(3-(3-methoxypyridin-4-yl)pyrazin-2-yloxy)phenyl)benzo[d]thiazol-2-amine]", "pIC50": "> 7.60"}, {"smiles": "COc1cccc(-c2nccnc2Oc2ccc(Nc3nc4ccccc4s3)cc2)c1", "note": "[Example 150, N-(4-(3-(3-methoxyphenyl)pyrazin-2-yloxy)phenyl)benzo[d]thiazol-2-amine]", "pIC50": "7.00 to 7.60"}, {"smiles": "COc1cncc(-c2nccnc2Oc2ccc(Nc3nc4ccccc4s3)cc2)c1", "note": "[Example 156, N-(4-(3-(5-methoxypyridin-3-yl)pyrazin-2-yloxy)phenyl)benzo[d]thiazol-2-amine]", "pIC50": "7.00 to 7.60"}, {"smiles": "O=C(c1ccc(Oc2nccnc2C2CCOCC2)cc1)c1nc2ccccc2[nH]1", "note": "[Example 181, (1H-benzo[d]imidazol-2-yl)(4-(3-(tetrahydro-2H-pyran-4-yl)pyrazin-2-yloxy)phenyl)methanone]", "pIC50": "> 7.60"}, {"smiles": "CN1CCC(c2nccnc2Oc2ccc(C(=O)c3nc4ccccc4[nH]3)cc2)CC1=O", "note": "(stereo not shown) [Example 253, 4-(3-(4-(1H-benzo[d]imidazole-2-carbonyl)phenoxy)pyrazin-2-yl)-1-methylpiperidin-2-one]", "pIC50": "> 7.60"}, {"smiles": "CC(=O)N1CC(c2nccnc2Oc2ccc(C(=O)c3nc4ccccc4[nH]3)cc2)C1", "note": "[Example 250, 1-(3-(3-(4-(1H-benzo[d]imidazole-2-carbonyl)phenoxy)pyrazin-2-yl)azetidin-1-yl)ethanone]", "pIC50": "> 7.60"}, {"smiles": "O=C(c1ccc(Oc2nccnc2C2CCOCC2)cc1)c1nc2ncccc2[nH]1", "note": "[Example 182, (1H-imidazo[4,5-b]pyridin-2-yl)(4-(3-(tetrahydro-2H-pyran-4-yl)pyrazin-2-yloxy)phenyl)methanone]", "pIC50": "> 7.60"}, {"smiles": "O=C(c1ccc(Oc2nccnc2-c2ccc[nH]c2=O)cc1)c1nc2ccccc2[nH]1", "note": "[Example 106, 3-(3-(4-(1H-BENZO[D]IMIDAZOLE-2-CARBONYL)PHENOXY)PYRAZIN-2-YL)PYRIDIN-2(1H)-ONE]", "pIC50": "> 7.60"}, {"smiles": "N#Cc1ccc(-c2nccnc2Oc2ccc(Nc3nc4ccccc4s3)cc2)cn1", "note": "[Example 142, 5-(3-(4-(benzo[d]thiazol-2-ylamino)phenoxy)pyrazin-2-yl)picolinonitrile]", "pIC50": "> 7.60"}, {"smiles": "c1cncc(-c2nccnc2Oc2ccc(Nc3nc4ccccc4s3)cc2)c1", "note": "[Example 148, N-(4-(3-(pyridin-3-yl)pyrazin-2-yloxy)phenyl)benzo[d]thiazol-2-amine]", "pIC50": "> 7.60"}, {"smiles": "Fc1ccc2[nH]c(Nc3ccc(Oc4nccnc4N4CCOCC4)cc3)nc2c1", "note": "[Example 64, 5-fluoro-N-(4-(3-morpholinopyrazin-2-yloxy)phenyl)-1H-benzo[d]imidazol-2-amine]", "pIC50": "7.00 to 7.60"}, {"smiles": "CC(=O)N1CCN(c2nccnc2Oc2ccc(Nc3nc4ccccc4s3)cc2)CC1", "note": "[Example 71, 1-(4-(3-(4-(benzo[d]thiazol-2-ylamino)phenoxy)pyrazin-2-yl)piperazin-1-yl)ethanone]", "pIC50": "7.00 to 7.60"}, {"smiles": "[2H]C([2H])([2H])C(=O)N1CCC(c2nccnc2Oc2ccc(C(=O)c3nc4ccccc4[nH]3)cc2)CC1", "note": "[Example 231, 1-(4-(3-(4-(1H-benzo[d]imidazole-2-carbonyl)phenoxy)pyrazin-2-yl)piperidin-1-yl)perdeuteroethanone]", "pIC50": "> 7.60"}, {"smiles": "O=C1CCCC(c2nccnc2Oc2ccc(C(=O)c3nc4ccccc4[nH]3)cc2)C1", "note": "(racemic) [Example 210, (rac)-3-(3-(4-(1H-benzo[d]imidazole-2-carbonyl)phenoxy)pyrazin-2-yl)cyclohexanone]", "pIC50": "> 7.60"}, {"smiles": "O=C(c1ccc(Oc2nccnc2-c2ccnc3ccccc23)cc1)c1nc2ccccc2[nH]1", "note": "[Example 129, (1H-benzo[d]imidazol-2-yl)(4-(3-(quinolin-4-yl)pyrazin-2-yloxy)phenyl)methanone]", "pIC50": "7.00 to 7.60"}]}, {"target": "PDE10 (UniProt Q9Y233)", "assay": "PDE10 enzyme inhibition, IMAP TR-FRET assay (MPDE10A7 Enzyme Activity and Inhibition)", "assay_type": "biochemical", "settings": "PDE10 enzyme inhibition; average IC50 data for each compound; read-out: Average IC50", "method": "as §1, §2, §3, §4", "values": [{"smiles": "COc1ncc(F)cc1-c1nccnc1Oc1ccc(C(=O)c2nc3ccccc3[nH]2)cc1", "note": "[drawing 942]", "pIC50": 8.53}, {"smiles": "O=C(c1ccc(Oc2nccnc2[C@@H]2CCCOCC2)cc1)c1nc2ccccc2[nH]1", "note": "(stereo in doubt)", "pIC50": 8.91}, {"smiles": "O=C(c1ccc(Oc2nccnc2[C@H]2CCCOC2)cc1)c1nc2ccccc2[nH]1", "note": "(stereo in doubt)", "pIC50": 8.59}, {"smiles": "N#CC1(c2nccnc2Oc2ccc(Nc3nc4ccccc4s3)cc2)CCOCC1", "note": "[drawing 867]", "pIC50": 8.35}, {"smiles": "N#C[C@H]1CCN(c2nccnc2Oc2ccc(C(=O)c3nc4ccccc4[nH]3)cc2)C1", "note": "[drawing 829]", "pIC50": 8.88}, {"smiles": "CC(C)N1CCN(c2nccnc2Oc2ccc(Nc3nc4ccccc4s3)cc2)CC1=O", "note": "[drawing 766]", "pIC50": 7.90}, {"smiles": "O=C(c1ccc(Oc2nccnc2OCC2CC2)cc1)c1nc2ccccc2[nH]1", "note": "[drawing 846]", "pIC50": 6.79}, {"smiles": "COC(=O)C1(c2nccnc2Oc2ccc(Nc3nc4ccccc4s3)cc2)CCOCC1", "note": "[drawing 871]", "pIC50": 8.20}, {"smiles": "O=C(c1ccc(Oc2nccnc2Cl)cc1)c1nc2ccc(F)cc2[nH]1", "note": "[drawing 813]", "pIC50": 5.80}, {"smiles": "O=C(O)C1CN(c2nccnc2Oc2ccc(Nc3nc4ccccc4s3)cc2)C1", "note": "[drawing 718]", "pIC50": 8.67}, {"smiles": "O[C@H]1CCC[C@H](c2nccnc2Oc2ccc(Nc3nc4ccccc4s3)cc2)C1", "note": "[drawing 894]", "pIC50": 8.80}, {"smiles": "COc1cccc(-c2nccnc2Oc2ccc(Nc3nc4ccccc4s3)cc2)c1", "note": "[drawing 740]", "pIC50": 7.02}, {"smiles": "O=C(c1ccc(Oc2nccnc2OCc2ccccn2)cc1)c1nc2ccccc2[nH]1", "note": "[drawing 849]", "pIC50": 5.77}, {"smiles": "COC(=O)N1CCC(c2nccnc2Oc2ccc(C(=O)c3nc4ccccc4[nH]3)cc2)CC1", "note": "[drawing 971]", "pIC50": 10.21}, {"smiles": "CC1(O)CCN(c2nccnc2Oc2ccc(Nc3nc4ccccc4s3)cc2)CC1", "note": "[drawing 742]", "pIC50": 8.09}, {"smiles": "c1ccc2sc(Nc3ccc(Oc4nccnc4C4CCOCC4)cc3)nc2c1", "note": "[drawing 864]", "pIC50": 9.22}, {"smiles": "OC(c1ccc(Oc2nccnc2C2CCOCC2)cc1)c1nc2ccccc2[nH]1", "note": "(stereo not shown)", "pIC50": 6.41}, {"smiles": "O=C(c1ccc(Oc2nccnc2[C@@H]2CCC[C@H](O)C2)cc1)c1nc2ccccc2[nH]1", "note": "[drawing 907]", "pIC50": 8.94}, {"smiles": "O=C(c1ccc(Oc2nccnc2OCC2CCOC2)cc1)c1nc2ccccc2[nH]1", "note": "(stereo not shown) [drawing 854]", "pIC50": 8.25}]}, {"target": "PDE10 (UniProt Q9Y233)", "assay": "PDE10 enzyme inhibition, IMAP TR-FRET assay (MPDE10A7 Enzyme Activity and Inhibition)", "assay_type": "biochemical", "settings": "PDE10 enzyme inhibition; chiral compounds separated from racemic mixtures; read-out: IC50", "method": "as §1, §2, §3, §4", "values": [{"smiles": "O=C(c1ccc(Oc2nccnc2[C@@H]2CCC[C@@H](O)C2)cc1)c1nc2ccccc2[nH]1", "note": "(stereo in doubt) [Example 274, (1H-benzo[d]imidazol-2-yl)(4-(3-((1R,3R)-3-hydroxycyclohexyl)pyrazin-2-yloxy)phenyl) methanone]", "pIC50": "> 7.60"}, {"smiles": "C[C@H](F)C(=O)N1CCC(c2nccnc2Oc2ccc(Nc3nc4ccccc4s3)cc2)CC1", "note": "[Example 280, (S)-1-(4-(3-(4-(benzo[d]thiazol-2-ylamino)phenoxy)pyrazin-2-yl)piperidin-1-yl)-2-fluoropropan-1-one]", "pIC50": "> 7.60"}]}]}
